Measurements published in patent US20250109370A1, “METHOD FOR PRODUCING CELL SUPPORT COMPOSITE, METHOD FOR PRODUCING DRUG EVALUATION APPARATUS, DRUG EVALUATION METHOD, AND DRUG EVALUATION APPARATUS” (NIKKISO CO., LTD., priority 2022, published 2025).

Tests used:
OCT2 = biological target: T1, OCT2 (Homo sapiens, UniProt O15244); assay: Membrane transportation evaluation using Transwell: cellular intake of radiolabeled Metformin by monolayer of re-seeded aggregate-cultured cells (Test 7); format: in vitro ADME
T1 sequence (O15244 1-555): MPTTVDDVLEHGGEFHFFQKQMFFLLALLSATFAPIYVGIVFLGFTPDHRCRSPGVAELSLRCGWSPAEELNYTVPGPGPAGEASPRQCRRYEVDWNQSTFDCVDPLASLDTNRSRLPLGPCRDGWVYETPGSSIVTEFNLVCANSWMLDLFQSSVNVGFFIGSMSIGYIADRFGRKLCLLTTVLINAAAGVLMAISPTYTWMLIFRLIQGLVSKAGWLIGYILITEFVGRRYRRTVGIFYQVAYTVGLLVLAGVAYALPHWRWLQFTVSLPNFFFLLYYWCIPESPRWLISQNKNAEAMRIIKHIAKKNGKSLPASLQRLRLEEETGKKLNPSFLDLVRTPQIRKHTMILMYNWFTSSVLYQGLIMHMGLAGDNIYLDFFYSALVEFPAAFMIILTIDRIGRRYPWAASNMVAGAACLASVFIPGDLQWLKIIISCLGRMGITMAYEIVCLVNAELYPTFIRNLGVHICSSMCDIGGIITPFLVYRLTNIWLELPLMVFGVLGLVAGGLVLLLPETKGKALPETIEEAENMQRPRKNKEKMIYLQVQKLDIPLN
Method: (§1) First, aggregates were formed, and a cell suspension was prepared from the aggregates to thereby re-seed the cells on the insert in the same manner as in Test 2. The seeding density was set to 4×10^4/well (12×10^4 cells/cm^2). Then, on the day after re-seeding (within 18 to 24 hours of re-seeding), membrane transport evaluation was performed using Transwell. In the membrane transport evaluation, radiolabeled Adefovir and radiolabeled Metformin were used. Adefovir is a drug as a substrate for OAT1, that is, a drug that is transported by OAT1. Metformin is a drug as a substrate for OCT2, that is, a drug that is transported by OCT2.
(§2) An assay buffer with each substrate added to a HBSS buffer was added to insert of the Transwell and treated for a predetermined time. For the Adefovir test, the treatment time was 2 minutes. For the Metformin test, the treatment time was 10 minutes. The cells were then retrieved, a cell suspension was prepared, and the radioisotopes in the cell suspension were quantified. As a result, the amount of substrate intake into the cell from the cellular apical membrane side was evaluated. The amount of substrate intake was also evaluated in the same manner when an inhibitor of OAT1, Probenecid, was added to the assay buffer and when an inhibitor of OCT2, Cimetidine, was added to the assay buffer.
(§3) The assay buffer was also added to the well of the Transwell and treated for a predetermined time. For the Adefovir test, the treatment time was 2 minutes. For the Metformin test, the treatment time was 10 minutes. The cells were then retrieved, a cell suspension was prepared, and the radioisotopes in the cell suspensions were quantified. As a result, the amount of substrate intake into the cell from the cellular basement membrane side was evaluated. The amount of substrate intake was also evaluated in the same manner when an inhibitor Probenecid was added to the assay buffer and when an inhibitor Cimetidine was added to the assay buffer.
(§4) In FIG. 15A and FIG. 15B, “A to C” indicates the amount of substrate intake into the cell from the cellular apical membrane side. […]

OAT1 = biological target: T2, OAT1 (Homo sapiens, UniProt Q4U2R8); assay: Membrane transportation evaluation using Transwell: cellular intake of radiolabeled Adefovir by monolayer of re-seeded aggregate-cultured cells (Test 7); format: in vitro ADME
T2 construct: Adefovir is a drug as a substrate for OAT1, that is, a drug that is transported by OAT1; host or cells: human renal proximal tubule epithelial cells, aggregate-cultured and re-seeded as a monolayer on a Transwell insert
T2 sequence (Q4U2R8 1-563): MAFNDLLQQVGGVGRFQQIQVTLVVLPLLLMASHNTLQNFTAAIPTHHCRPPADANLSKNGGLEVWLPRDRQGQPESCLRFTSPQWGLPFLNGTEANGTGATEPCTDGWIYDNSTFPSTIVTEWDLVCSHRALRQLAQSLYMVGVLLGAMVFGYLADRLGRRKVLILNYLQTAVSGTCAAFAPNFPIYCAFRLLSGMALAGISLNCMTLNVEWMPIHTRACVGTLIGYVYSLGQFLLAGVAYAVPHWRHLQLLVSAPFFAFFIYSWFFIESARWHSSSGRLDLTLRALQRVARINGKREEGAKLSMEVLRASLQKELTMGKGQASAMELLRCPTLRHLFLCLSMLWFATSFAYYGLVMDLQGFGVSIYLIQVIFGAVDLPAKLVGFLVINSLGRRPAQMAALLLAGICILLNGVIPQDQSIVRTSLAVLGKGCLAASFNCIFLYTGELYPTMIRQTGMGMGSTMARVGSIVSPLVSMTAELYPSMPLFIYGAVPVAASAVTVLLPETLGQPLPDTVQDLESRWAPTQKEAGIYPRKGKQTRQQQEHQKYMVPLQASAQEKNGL
Method: as §1, §2, §3, §4

## CN(C)C(=N)N=C(N)N [Metformin]
OCT2; concluded from decrease with inhibitor Cimetidine
  transporter responsible for intake: due to OCT2
OCT2; radiolabeled Metformin in HBSS buffer, 10 minutes, human renal proximal tubule epithelial cells 18 to 24 hours after re-seeding, FIG. 15B
  substrate intake into the cells: taken into the cells
OCT2; radiolabeled Metformin, 10 minutes, FIG. 15B
  amount of cellular intake, basement membrane side (B to C) versus apical membrane side (A to C): higher from the cellular basement membrane side than from the cellular apical membrane side

## Nc1ncnc2c1ncn2CCOCP(=O)(O)O [Adefovir]
OAT1; concluded from decrease with inhibitor Probenecid
  transporter responsible for intake: due to OAT1
OAT1; radiolabeled Adefovir in HBSS buffer, 2 minutes, human renal proximal tubule epithelial cells 18 to 24 hours after re-seeding, FIG. 15A
  substrate intake into the cells: taken into the cells
OAT1; radiolabeled Adefovir, 2 minutes, FIG. 15A
  amount of cellular intake, basement membrane side (B to C) versus apical membrane side (A to C): higher from the cellular basement membrane side than from the cellular apical membrane side
